Key:
[1] = Cell-free Amplex Red/HRP assay with 10 μM H2O2 (H2O2 scavenging / HRP inhibition); settings: H2O2 alone
Procedure: This assay allows to detect H2O2 scavengers as well as HRP inhibitors. (iii) Another assay for determining antioxidant activity analyzes serial dilutions of compounds in the presence of free radical DPPH in methanol in transparent 96-well plates (200 μl/well). Absorbance was measured at 540 nm after 15 min incubation in the dark. All scavenging assays were performed with FlexStation 3 Multi-Mode Microplate Reader (Molecular Devices).

human NOX4 = molecular target: T1, human NOX4 (Homo sapiens, UniProt Q9NPH5); assay: WST-1 O2•- detection in tetracycline-induced NOX4 HEK293 T-REx cells; type: cell-based; settings: NOX4 expressing cells, concentration-response
T1 sequence (Q9NPH5 1-578): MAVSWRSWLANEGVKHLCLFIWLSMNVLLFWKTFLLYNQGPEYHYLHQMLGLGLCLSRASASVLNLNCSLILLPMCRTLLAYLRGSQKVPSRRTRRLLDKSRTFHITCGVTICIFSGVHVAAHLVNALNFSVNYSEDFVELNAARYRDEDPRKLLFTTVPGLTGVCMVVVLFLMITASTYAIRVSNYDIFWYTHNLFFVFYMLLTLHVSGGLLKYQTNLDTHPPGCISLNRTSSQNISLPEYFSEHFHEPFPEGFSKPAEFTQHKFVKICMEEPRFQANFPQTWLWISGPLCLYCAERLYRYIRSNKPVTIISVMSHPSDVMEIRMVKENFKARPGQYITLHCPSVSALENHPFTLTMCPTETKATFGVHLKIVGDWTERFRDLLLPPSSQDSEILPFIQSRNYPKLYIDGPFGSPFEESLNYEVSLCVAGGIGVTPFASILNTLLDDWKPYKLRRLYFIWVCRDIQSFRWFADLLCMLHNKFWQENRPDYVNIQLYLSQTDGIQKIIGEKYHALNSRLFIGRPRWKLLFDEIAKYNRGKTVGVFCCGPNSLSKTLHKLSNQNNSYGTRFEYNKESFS
T1 sequence (P13498 1-195 partner): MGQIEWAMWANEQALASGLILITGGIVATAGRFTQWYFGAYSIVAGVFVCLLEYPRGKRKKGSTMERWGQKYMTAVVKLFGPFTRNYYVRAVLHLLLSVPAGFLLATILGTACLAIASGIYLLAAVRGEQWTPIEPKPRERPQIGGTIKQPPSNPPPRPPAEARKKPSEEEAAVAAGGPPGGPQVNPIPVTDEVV

NOX1 = molecular target: NOX1; parameters: method as in PMID 27273790; settings: documented values, measured using Amplex Red/HRP assay; cited from earlier work
NOX5 = molecular target: NOX5; parameters: method as in PMID 27273790; settings: documented values, measured using Amplex Red/HRP assay; cited from earlier work
human NOX1 = molecular target: T2, human NOX1 (Homo sapiens, UniProt Q9Y5S8); assay: WST-1 O2•- detection in NOX1-expressing CHO cells; type: cell-based; settings: NOX1 expressing cells, concentration-response
T2 construct: expressed in transfected cells; host or cells: CHO
T2 sequence (Q9Y5S8 1-564): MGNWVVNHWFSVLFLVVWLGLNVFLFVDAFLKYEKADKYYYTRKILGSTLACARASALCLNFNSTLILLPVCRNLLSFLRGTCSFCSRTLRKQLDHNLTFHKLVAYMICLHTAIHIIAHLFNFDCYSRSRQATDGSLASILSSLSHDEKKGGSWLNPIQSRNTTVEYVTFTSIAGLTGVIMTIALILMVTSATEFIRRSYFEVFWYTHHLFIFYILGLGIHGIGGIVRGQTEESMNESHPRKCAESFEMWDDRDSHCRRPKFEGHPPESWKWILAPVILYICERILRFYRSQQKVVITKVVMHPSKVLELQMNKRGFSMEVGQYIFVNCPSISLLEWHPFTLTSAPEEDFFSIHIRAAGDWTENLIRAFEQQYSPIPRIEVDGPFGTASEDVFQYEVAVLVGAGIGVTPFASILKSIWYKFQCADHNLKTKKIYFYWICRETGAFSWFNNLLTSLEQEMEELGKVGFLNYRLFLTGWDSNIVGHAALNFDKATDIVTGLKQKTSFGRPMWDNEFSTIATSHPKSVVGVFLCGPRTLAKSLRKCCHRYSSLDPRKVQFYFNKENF
T2 sequence (P13498 1-195 partner): T1 sequence (P13498 1-195 partner)

In the case of CN(C)c1cccc(-c2c3c(=O)n(-c4ccccc4Cl)[nH]c3cc(=O)n2C)c1 [GKT137831], the “Effect on Amplex red/HRP signal in the presence of H2O2 alone” value [1] is given as “inhibits the Amplex red/HRP signal”, the “Activity on NOX4 in the WST-1 assay” value (human NOX4) is given as “inactive” and the “Ki NOX1” value (NOX1) is given as “nanomolar range”. The “Ki NOX5” value (NOX5) was “nanomolar range” and the “Activity on NOX1 in the WST-1 assay” value (human NOX1) was “inactive”.
